Reference: ChEMBL document CHEMBL3351378, “Phenyl acetate derivatives, fluorine-substituted on the phenyl group, as rapid recovery hypnotic agents with reflex depression” (Eur J Med Chem, 2015)
Active and inactive are the calls of the source. The calls are words filed in the database; no cut-off is given here.

Experiments:
Rattus norvegicus [1] = experiment: Induction of hypnotic activity in iv dosed Sprague-Dawley rat assessed as loss of righting reflex; type: functional
[2] = Toxicity in Sprague-Dawley rat assessed as motor coordination by rotarod test; type: organism-based; settings: in vivo
[3] = Therapeutic index, ratio of […] for Sprague-Dawley rat by rotarod test to HD50 for hypnotic activity in iv dosed Sprague-Dawley rat; type: organism-based; settings: in vivo, read-out: TI
Rattus norvegicus [4] = experiment: Induction of hypnotic activity in iv dosed Sprague-Dawley rat assessed as time duration of loss of righting reflex; type: functional
[5] = molecular target: Glutamate NMDA receptor (Rattus norvegicus) (UniProt P35439+Q00959+Q00960+Q00961+Q62645+Q8VHN2+Q9R1M7); experiment: Displacement of [3H]MK801 from NMDA receptor in Sprague-Dawley rat cerebral cortex membrane at 50 umol by liquid scintillation counting; type: tissue-based
Rattus norvegicus [6] = experiment: Induction of hypnotic activity in iv dosed Sprague-Dawley rat assessed as reflex depression 10 secs following injection; type: functional, organism-based
Rattus norvegicus [7] = experiment: Induction of hypnotic activity in iv dosed Sprague-Dawley rat assessed as reflex depression 20 secs following injection; type: functional, organism-based
Rattus norvegicus [8] = experiment: Induction of hypnotic activity in Sprague-Dawley rat assessed as recovery time to walking at 5.6 mg/kg/min after 20 mins to 3 hrs; type: functional, organism-based
Rattus norvegicus [9] = experiment: Induction of hypnotic activity in iv dosed Sprague-Dawley rat assessed as reflex depression 180 secs following injection; type: functional, organism-based
Rattus norvegicus [10] = experiment: Induction of hypnotic activity in iv dosed Sprague-Dawley rat assessed as reflex depression 60 secs following injection; type: functional, organism-based
Rattus norvegicus [11] = experiment: Induction of hypnotic activity in iv dosed Sprague-Dawley rat assessed as reflex depression 120 secs following injection; type: functional, organism-based
Rattus norvegicus [12] = experiment: Induction of hypnotic activity in iv dosed Sprague-Dawley rat assessed as reflex depression 30 secs following injection; type: functional, organism-based

Row | Compound | HD50 (Rattus norvegicus [1]) | TD50 [2] | selectivity ratio [3] | Time (Rattus norvegicus [4]) | Activity [5] | Activity (Rattus norvegicus [6]) | Activity (Rattus norvegicus [7]) | Activity (Rattus norvegicus [8]) | Activity (Rattus norvegicus [9]) | Activity (Rattus norvegicus [10]) | Activity (Rattus norvegicus [11]) | Activity (Rattus norvegicus [12])
1 | CCOC(=O)Cc1cc(OC)c(OCC(=O)N(CC)CC)cc1F | 10 mg/kg | 113 mg/kg | 11.3 | 82.2 s | inactive |  |  |  |  |  |  | 
2 | CCN(CC)C(=O)COc1ccc(CC(=O)OCC(F)(F)F)c(F)c1OC | 22.8 mg/kg | 185 mg/kg | 8.1 | 88.7 s | inactive |  |  |  |  |  |  | 
3 | CCOC(=O)Cc1cc(F)c(OCC(=O)N(CC)CC)c(OCC)c1 | 18.5 mg/kg | 224 mg/kg | 12.1 | 66.5 s | inactive |  |  |  |  |  |  | 
4 | CCOc1cc(CC(=O)OCC(F)(F)F)c(F)cc1OCC(=O)N(CC)CC | 9.8 mg/kg | 113 mg/kg | 11.5 | 186.1 s | inactive |  |  |  |  |  |  | 
5 | CCCOC(=O)Cc1cc(OCC)c(OCC(=O)N(CC)CC)cc1F | 5.3 mg/kg | 70.5 mg/kg | 13.3 | 215.3 s | inactive |  |  |  |  |  |  | 
6 | CC(C)c1cccc(C(C)C)c1O [PROPOFOL] | 5.3 mg/kg | 30.7 mg/kg | 5.9 | 349.3 s |  |  |  |  |  |  |  | 
7 | CCOC(=O)Cc1cc(F)c(OCC(=O)N(CC)CC)c(OC)c1 | 17.2 mg/kg | 239 mg/kg | 13.9 | 72 s | inactive |  |  |  |  |  |  | 
8 | CCN(CC)C(=O)COc1cc(F)c(CC(=O)OC(C)C)cc1OC | 11.5 mg/kg | 155 mg/kg | 13.5 | 86.6 s | inactive |  |  |  |  |  |  | 
9 | CCCOc1cc(CC(=O)OC(C)C)c(F)cc1OCC(=O)N(CC)CC | 10.6 mg/kg | 102 mg/kg | 9.6 | 133.9 s | inactive |  |  |  |  |  |  | 
10 | CCOc1cc(CC(=O)OC(C)C(F)(F)F)c(F)cc1OCC(=O)N(CC)CC (stereo not given) | 11.6 mg/kg | 124 mg/kg | 10.7 | 238.3 s | inactive |  |  |  |  |  |  | 
11 | CCCCOC(=O)Cc1cc(OCC)c(OCC(=O)N(CC)CC)cc1F | 9.7 mg/kg | 109 mg/kg | 11.2 | 158.3 s | inactive |  |  |  |  |  |  | 
12 | CCCOC(=O)Cc1ccc(OCC(=O)N(CC)CC)c(OCC)c1F | 16.6 mg/kg | 173 mg/kg | 10.4 | 81.4 s | inactive |  |  |  |  |  |  | 
13 | CCOc1c(OCC(=O)N(CC)CC)ccc(CC(=O)OCC(F)(F)F)c1F | 21.1 mg/kg | 162 mg/kg | 7.7 | 83.3 s | inactive |  |  |  |  |  |  | 
14 | CCOc1c(OCC(=O)N(CC)CC)ccc(CC(=O)OC(C)C)c1F | 17.9 mg/kg | 165 mg/kg | 9.2 | 102.9 s | inactive |  |  |  |  |  |  | 
15 | CCN(CC)C(=O)COc1ccc(CC(=O)OC(C)C)c(F)c1OC | 17.9 mg/kg | 141 mg/kg | 7.9 | 91.4 s | inactive |  |  |  |  |  |  | 
16 | CCN(CC)C(=O)COc1c(F)cc(CC(=O)OC(C)C(F)(F)F)cc1OC (stereo not given) | 15.4 mg/kg | 148 mg/kg | 9.6 | 84.2 s | inactive |  |  |  |  |  |  | 
17 | CCOc1cc(CC(=O)OCC(F)(F)F)cc(F)c1OCC(=O)N(CC)CC | 14.6 mg/kg | 127 mg/kg | 8.7 | 76.6 s | inactive |  |  |  |  |  |  | 
18 | CCCOC(=O)Cc1cc(OC)c(OCC(=O)N(CC)CC)cc1F | 15.8 mg/kg | 199 mg/kg | 12.6 | 79.3 s | inactive |  |  |  |  |  |  | 

Row | Compound | HD50 (Rattus norvegicus [1]) | TD50 [2] | selectivity ratio [3] | Time (Rattus norvegicus [4]) | Activity [5] | Activity (Rattus norvegicus [6]) | Activity (Rattus norvegicus [7]) | Activity (Rattus norvegicus [8]) | Activity (Rattus norvegicus [9]) | Activity (Rattus norvegicus [10]) | Activity (Rattus norvegicus [11]) | Activity (Rattus norvegicus [12])
19 | CCCOC(=O)Cc1cc(F)c(OCC(=O)N(CC)CC)c(OC)c1 | 16.8 mg/kg | 188 mg/kg | 11.2 | 68.9 s | inactive |  |  |  |  |  |  | 
20 | CCCOC(=O)Cc1ccc(OCC(=O)N(CC)CC)c(OCC)c1 [AZD-3043] | 7.9 mg/kg | 82.8 mg/kg | 10.1 | 74.2 s | inactive | Active | Active |  |  |  |  | 
21 | CCOC(=O)Cc1ccc(OCC(=O)N(CC)CC)c(OC)c1F | 21.6 mg/kg | 201 mg/kg | 9.3 | 89.8 s | inactive |  |  |  |  |  |  | 
22 | CCCOC(=O)Cc1cc(F)c(OCC(=O)N(CC)CC)c(OCC)c1 | 14.8 mg/kg | 175 mg/kg | 11.8 | 76.6 s | inactive |  |  |  |  |  |  | 
23 | CCN(CC)C(=O)COc1cc(F)c(CC(=O)OC(C)C(F)(F)F)cc1OC (stereo not given) | 15.6 mg/kg | 151 mg/kg | 9.7 | 88.9 s | inactive |  |  |  |  |  |  | 
24 | CCOc1cc(CC(=O)OC(C)C)c(F)cc1OCC(=O)N(CC)CC | 4.8 mg/kg | 60.9 mg/kg | 12.7 | 226.2 s | inactive |  |  |  |  |  |  | 
25 | CCCOC(=O)Cc1ccc(OCC(=O)N(CC)CC)c(OC)c1 [PROPANIDID] | 8.5 mg/kg | 80.6 mg/kg | 9.6 | 93.3 s | inactive | Active | Active |  |  |  |  | 
26 | CCOc1cc(CC(=O)OC(C)C)cc(F)c1OCC(=O)N(CC)CC | 19.5 mg/kg | 256 mg/kg | 13.1 | 92.7 s | inactive |  |  |  |  |  |  | 
27 | CCOc1c(OCC(=O)N(CC)CC)ccc(CC(=O)OC(C)C(F)(F)F)c1F (stereo not given) | 24.6 mg/kg | 182 mg/kg | 7.4 | 89.8 s | inactive |  |  |  |  |  |  | 
28 | CCN(CC)C(=O)COc1c(F)cc(CC(=O)OC(C)C)cc1OC | 14.2 mg/kg | 176 mg/kg | 12.4 | 79.5 s | inactive |  |  |  |  |  |  | 
29 | CCOC(=O)Cc1ccc(OCC(=O)N(CC)CC)c(OCC)c1F | 19.8 mg/kg | 200 mg/kg | 10.1 | 77.7 s | inactive |  |  |  |  |  |  | 
30 | CCCOC(=O)Cc1ccc(OCC(=O)N(CC)CC)c(OC)c1F | 19.4 mg/kg | 169 mg/kg | 8.7 | 76.6 s | inactive |  |  |  |  |  |  | 
31 | CCN(CC)C(=O)COc1cc(F)c(CC(=O)OCC(F)(F)F)cc1OC | 18.4 mg/kg | 171 mg/kg | 9.3 | 75.4 s | inactive |  |  |  |  |  |  | 
32 | CCOc1cc(CC(=O)OC(C)CC)c(F)cc1OCC(=O)N(CC)CC (stereo not given) | 8.4 mg/kg | 90.7 mg/kg | 10.8 | 145.3 s | inactive |  |  |  |  |  |  | 
33 | CCOc1cc(CC(=O)OC(C)C(F)(F)F)cc(F)c1OCC(=O)N(CC)CC (stereo not given) | 18.3 mg/kg | 181 mg/kg | 9.9 | 88.8 s | inactive |  |  |  |  |  |  | 
34 | CCN(CC)C(=O)COc1c(F)cc(CC(=O)OCC(F)(F)F)cc1OC | 16.9 mg/kg | 165 mg/kg | 9.8 | 71.1 s | inactive |  |  |  |  |  |  | 
35 | CCOC(=O)Cc1cc(OCC)c(OCC(=O)N(CC)CC)cc1F | 5.6 mg/kg | 74.5 mg/kg | 14.4 | 209.6 s | 56.6% | inactive | Active | inactive | Active | Active | Active | Active
36 | CCN(CC)C(=O)COc1ccc(CC(=O)OC(C)C(F)(F)F)c(F)c1OC (stereo not given) | 21.4 mg/kg | 158 mg/kg | 7.4 | 92.6 s | inactive |  |  |  |  |  |  | 
